pIC50: −log10 of the molar value. “Also recorded” adds a separate entry of the source.
How the values were obtained:
Assay type in all cases: cell-based, Pseudomonas aeruginosa
[1] = test system: nonswarming P. aeruginosa mutant rhlA; experiment: Swarming motility of nonswarming rhlA mutant on soft agar (reactivation / agonist assay); details: for Reactivation of swarming motility of rhlA mutant: concentration not given; for Swarming reactivation of rhlA mutant: 110 μM in soft agar; for Concentration that suppresses reactivation of rhlA swarming by DβC: co-administered with 40 μM DβC
Outline: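 rhlA transposon mutant of PAO1 (3 μl, OD600 0.4–0.6) inoculated on M8 soft agar (0.2% glucose, 0.5% casamino acids, 1 mM MgSO4, 0.5% agar) with test compound to find swarming agonists. Incubated 12 h at 37 °C plus 12 h at room temperature; swarm area measured by weighing paper cut-outs of imaged swarms.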

[2] = test system: PAO1 biofilm; experiment: Crystal violet based static biofilm inhibition assay, DSHs in LB media (Examples 2 and 4); details: for Anti-biofilm activity (biofilm inhibition): concentration not given; for Inhibition of PAO1 biofilm in presence of pili peptide PAO(128-144)ox: agent 85 μM + pili peptide 85 μM; for Inhibition of PAO1 biofilm in presence of scrambled pili peptide: agent 85 μM + scrambled pili peptide 85 μM
Outline: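 PAO1 subculture (OD600 ~0.1) was grown statically in LB at 37° C for 24 h with or without DSHs (screened at 160 μM). Surface-attached biofilm was then stained with 0.1% crystal violet, solubilised in 30% AcOH and read at 600 nm. Values are the mean of 4 wells.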

[3] = test system: wild type PAO1; experiment: Swarming motility of wild type PAO1 on soft agar (antagonist assay); details: for Swarming of wild type PAO1: 110 μM in soft agar; for Effect on PAO1 swarming: concentration not given; for Concentration of activity reversal for swarming inhibition of PAO1 (transition concentration): soft agar
Outline: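 Wild-type PAO1 culture (OD600 ~0.4–0.6, 3 μl) spotted on M8 swarm agar with 0.2% glucose, 0.5% casamino acids, 1 mM MgSO4 and 0.5% agar. Plates incubated 12 h at 37 °C then 12 h at room temperature; swarm area measured by cutting and weighing printed plate images.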

[4] = 85 μM in soft agar (0.5%), 24 h

SMILES	Anti-biofilm activity (biofilm inhibition) [2]	Swarming motility of rhlA mutant [1, 4]	Concentration of activity reversal for swarming promotion of rhlA mutant (transition concentration) ([1]; soft agar)	pIC50 ([2]; Example 2, FIG. 18)	pIC50 ([2]; Example 4, FIG. 30)	Swarming motility of wild type PAO1 ([3]; 20 μM)	Swarming motility of wild type PAO1 ([3]; 85 μM in soft agar, 24 h)	Effect on PAO1 swarming [3]	Concentration of activity reversal for swarming inhibition of PAO1 (transition concentration) [3]	Swarming reactivation of rhlA mutant ([1]; 24 h)	Swarming of wild type PAO1 ([3]; 24 h)	also measured
CCCCCCCCCCCCOCCOCCOCCOCCO [C12EG4OH, tetra (ethylene glycol) monododecyl ether, reference compound]	did not incur any bioactivity											Reactivation of swarming motility of rhlA mutant [1]: do not reactivate the swarming motility; also recorded: did not promote or reactivate; Reactivation of swarming motility of rhlA mutant ([1]; listed as C12EG5OH): did not incur any bioactivity
CCCCCCCCCCCCOS(=O)(=O)[O-].[Na+] [SDS, sodium dodecyl sulfate, reference compound]	did not incur any bioactivity											Reactivation of swarming motility of rhlA mutant ([1]; sulfate): do not reactivate the swarming motility; also recorded: did not incur any bioactivity; also recorded: did not promote or reactivate
CC(C)CCCC(C)CCCC(C)CCO[C@@H]1O[C@H](CO)[C@@H](O[C@@H]2O[C@H](CO)[C@@H](O)[C@H](O)[C@H]2O)[C@H](O)[C@H]1O (stereo partly drawn) [SFβC (12), saturated famesyl-β-cellobioside]	potent PAO1 biofilm inhibitors	no apparent effect on rhlA	~8 µM	5.31	~5.00	did inhibit the swarming activity of wild type PAO1	inhibited the swarming motility of wild type PAO1	inhibitors for PAO1 swarming motility	~10 to 20 µM			Swarming motility of rhlA mutant ([1]; 20 μM): did not activate the swarming motility; Swarming reactivation of rhlA mutant ([1]; 24 h, listed as 12: SFbC): does not reactivate the swarming of rhlA mutant; Swarming reactivation of rhlA mutant ([1]; 24 h, listed as 12: SFβC): incapable of reactivating the swarming; Concentration that suppresses reactivation of rhlA swarming by DβC [1]: 20 µM; Concentration that suppresses reactivation of rhlA swarming by DβC ([1]; listed as SFβC): ≤ 20 µM; Concentration range in which swarming of rhlA is reactivated ([1]; soft agar, 24 h): 5-12 W; Concentration of activity reversal for swarming promotion of rhlA mutant (transition concentration) ([1]; soft agar, listed as 12): 8 µM; Concentration up to which there is no interference with swarming reactivation of rhlA by DβC ([1]; with 40 μM DβC): up to 10 μM; Concentration exhibiting inhibition of PAO1 swarming [3]: > 20 µM; Concentration exhibiting promotion of PAO1 swarming [3]: < 10 µM; Swarm ring of wild type PAO1 as percent of PAO1 without DSHs ([3]; 20 μM): ~5%; Swarm ring area of wild type PAO1 ([3]; 20 μM, control 24 cm2): ~1.2 cm2; Swarming motility of wild type PAO1 ([3]; 20 μM, listed as 12): stronger inhibition than rhamnolipids; Swarming of wild type PAO1 ([3]; 24 h, listed as 12: SFbC): inhabits the swarming of wt PAO1; Swarming of wild type PAO1 ([3]; 24 h, listed as 12: SFβC): completely inhibited the swarming of wt PAO1; Concentration of activity reversal for swarming inhibition of PAO1 (transition concentration) ([3]; listed as 12): 10 to 20 µM
CC(C)CCCC(C)CCCC(C)CCO[C@@H]1O[C@H](CO)[C@@H](O[C@H]2O[C@H](CO)[C@@H](O)[C@H](O)[C@H]2O)[C@H](O)[C@H]1O (stereo partly drawn) [SFβM (14), saturated farnesyl-β-maltoside]	potent PAO1 biofilm inhibitors	no apparent effect on rhlA	~10 µM	~4.01	~3.99	stronger inhibition than rhamnolipids	inhibited the swarming motility of wild type PAO1		~7.5 µM	incapable of reactivating the swarming	completely inhibited the swarming of wt PAO1	Swarming area of rhlA ([1]; 10 μM, 24 h): ~14 cm2; Concentration of activity reversal for swarming promotion of rhlA mutant (transition concentration) ([1]; soft agar, listed as 14): 10 µM; Concentration at which tendrils were induced in PAO1 [3]: ~7.5 µM; Concentration of activity reversal for swarming inhibition of PAO1 (transition concentration) ([3]; listed as 14): 7.5 µM
CC(C)CCCC(C)CCCC(C)CCO[C@H]1O[C@H](CO)[C@@H](O[C@@H]2O[C@H](CO)[C@@H](O)[C@H](O)[C@H]2O)[C@H](O)[C@H]1O (stereo partly drawn) [SFαC (13), saturated farnesyl-α-cellobioside]	potent PAO1 biofilm inhibitors	no apparent effect on rhlA		~4.49	~4.49		inhibited the swarming motility of wild type PAO1	inhibitors for PAO1 swarming motility		incapable of reactivating the swarming	completely inhibited the swarming of wt PAO1	Inhibition of PAO1 biofilm ([2]; 85 μM, agent alone): about 70%; Inhibition of PAO1 biofilm in presence of pili peptide PAO(128-144)ox [2]: 30%; Inhibition of PAO1 biofilm in presence of pili peptide PAO(128-144)ox ([2]; listed as 13: SFαC): exhibited no inhibition of PA biofilm; Inhibition of PAO1 biofilm in presence of scrambled pili peptide [2]: 65%; Inhibition of PAO1 biofilm in presence of scrambled pili peptide ([2]; listed as 13: SFαC): did not compromise the efficacy of the agent

Reference: patent US11357786B2, “Synthetic disugar hydrocarbons as natural analogs to control microbial behaviors” (Syracuse University, priority 2014, dated 2022)
